Reference: patent US20220041681A1 (MEDIMMUNE LIMITED, priority 2016, published 2022)

System: Healthy volunteer
Test: Phase 1 single-ascending dose study
Settings: for Median glucose peak after breakfast: 1 hour post breakfast, 3.5 hours post dose; for Median glucose peak after dinner: 1 hour post dinner, […] post dose; for Median glucose peak after lunch: 1 hour post lunch, 7 hours post dose; for Overall daily food intake compared with placebo: across breakfast, lunch and dinner
[1] = Total G933, N = 36, subjects n (%)

`CCCCCCCCCCCCCCCC(=O)N[C@@H](CCC(=O)NCCCC[C@H](NC(=O)[C@H](CC(=O)O)NC(=O)[C@H](CO)NC(=O)C(NC(=O)[C@H](Cc1ccccc1)NC(=O)C(NC(=O)CNC(=O)[C@H](CCC(N)=O)NC(=O)[C@H](CO)NC(=O)[C@@H](N)Cc1cnc[nH]1)[C@@H](C)O)[C@@H](C)O)C(=O)N[C@@H](CO)C(=O)N[C@@H](CCC(=O)O)C(=O)N[C@@H](Cc1ccc(O)cc1)C(=O)N[C@@H](CC(C)C)C(=O)N[C@@H](CC(=O)O)C(=O)N[C@@H](CO)C(=O)N[C@@H](CCC(=O)O)C(=O)N[C@@H](CCCNC(=N)N)C(=O)N[C@@H](C)C(=O)N[C@@H](CCCNC(=N)N)C(=O)N[C@@H](CC(=O)O)C(=O)N[C@@H](Cc1ccccc1)C(=O)N[C@H](C(=O)N[C@@H](C)C(=O)N[C@@H](Cc1c[nH]c2ccccc12)C(=O)N[C@@H](CC(C)C)C(=O)N[C@@H](CCC(=O)O)C(=O)N[C@@H](C)C(=O)NCC(=O)NCC(=O)O)C(C)C)C(=O)O` (some centres unmarked) [Peptide G933] was tested, and the “TEAE: Gastrointestinal Disorders” value (150 μg, N = 6, subjects n (%)) was 5 (83.3%), the “TEAE: Headache” value (150 μg, N = 6, subjects n (%)) was 1 (16.7%) and the “TEAE: Immune System Disorders” value (150 μg, N = 6, subjects n (%)) was 0. The “TEAE: Injury associated with device” value (150 μg, N = 6, subjects n (%)) was 0, the “TEAE: Injury poisoning and procedural complications” value (150 μg, N = 6, subjects n (%)) was 0 and the “TEAE: Metabolism and nutrition disorders” value (150 μg, N = 6, subjects n (%)) was 2 (33.3%). For the same compound, the “TEAE: Musculoskeletal and connective tissue disorders” value (150 μg, N = 6, subjects n (%)) was 0, the “TEAE: Musculoskeletal chest pain” value (150 μg, N = 6, subjects n (%)) was 0 and the “TEAE: Nasopharyngitis” value (150 μg, N = 6, subjects n (%)) was 0. The “TEAE: Nausea” value (150 μg, N = 6, subjects n (%)) was 4 (66.7%), the “TEAE: Nervous system disorders” value (150 μg, N = 6, subjects n (%)) was 1 (16.7%) and the “TEAE: Oropharyngeal pain” value (150 μg, N = 6, subjects n (%)) was 1 (16.7%). For the same compound, the “TEAE: Procedural dizziness” value (150 μg, N = 6, subjects n (%)) was 0, the “TEAE: Respiratory, thoracic and mediastinal disorders” value (shortened to “TEAE: Respiratory”) (150 μg, N = 6, subjects n (%)) was 1 (16.7%) and the “TEAE: Seasonal allergy” value (150 μg, N = 6, subjects n (%)) was 0. The “TEAE: Subjects with at least one event” value (150 μg, N = 6, subjects n (%)) was 5 (83.3%), the “TEAE: Ventricular extrasystoles” value (150 μg, N = 6, subjects n (%)) was 0 and the “TEAE: Vomiting” value (150 μg, N = 6, subjects n (%)) was 4 (66.7%). For the same compound, the vomiting episodes (300 μg dose, 5 subjects) was “Thirty”, the tolerability (300 μg single SC dose) was “not tolerated” and the “TEAE: Abdominal distension” value (300 μg, N = 6, subjects n (%)) was 0. For the same compound, the “TEAE: Abdominal pain” value (300 μg, N = 6, subjects n (%)) was 0, the “TEAE: Application site erosion” value (300 μg, N = 6, subjects n (%)) was 0 and the “TEAE: Arrhythmia” value (300 μg, N = 6, subjects n (%)) was 0. The “TEAE: Atrioventricular block second degree” value (300 μg, N = 6, subjects n (%)) was 0, the “TEAE: Cardiac Disorders” value (300 μg, N = 6, subjects n (%)) was 1 (16.7%) and the “TEAE: Decreased appetite” value (300 μg, N = 6, subjects n (%)) was 0. For the same compound, the “TEAE: Diarrhea” value (300 μg, N = 6, subjects n (%)) was 0, the “TEAE: Dizziness” value (300 μg, N = 6, subjects n (%)) was 1 (16.7%) and the “TEAE: Gastrointestinal Disorders” value (300 μg, N = 6, subjects n (%)) was 5 (83.3%). For the same compound, the “TEAE: Headache” value (300 μg, N = 6, subjects n (%)) was 0, the “TEAE: Immune System Disorders” value (300 μg, N = 6, subjects n (%)) was 0 and the “TEAE: Injury associated with device” value (300 μg, N = 6, subjects n (%)) was 1 (16.7%). For the same compound, the “TEAE: Injury poisoning and procedural complications” value (300 μg, N = 6, subjects n (%)) was 0, the “TEAE: Metabolism and nutrition disorders” value (300 μg, N = 6, subjects n (%)) was 0 and the “TEAE: Musculoskeletal and connective tissue disorders” value (300 μg, N = 6, subjects n (%)) was 0. The “TEAE: Musculoskeletal chest pain” value (300 μg, N = 6, subjects n (%)) was 0, the “TEAE: Nasopharyngitis” value (300 μg, N = 6, subjects n (%)) was 0 and the “TEAE: Nausea” value (300 μg, N = 6, subjects n (%)) was 3 (50.0%). For the same compound, the “TEAE: Oropharyngeal pain” value (300 μg, N = 6, subjects n (%)) was 0, the “TEAE: Procedural dizziness” value (300 μg, N = 6, subjects n (%)) was 0 and the “TEAE: Respiratory” value (300 μg, N = 6, subjects n (%)) was 0. The “TEAE: Seasonal allergy” value (300 μg, N = 6, subjects n (%)) was 0, the “TEAE: Subjects with at least one event” value (300 μg, N = 6, subjects n (%)) was 5 (83.3%) and the “TEAE: Ventricular extrasystoles” value (300 μg, N = 6, subjects n (%)) was 1 (16.7%). For the same compound, the “TEAE: Vomiting” value (300 μg, N = 6, subjects n (%)) was 5 (83.3%), the “TEAE: Abdominal distension” value [1] was 2 (5.6%) and the “TEAE: Abdominal pain” value [1] was 1 (2.8%). The “TEAE: Application site erosion” value [1] was 1 (2.8%), the “TEAE: Arrhythmia” value [1] was 1 (2.8%) and the “TEAE: Atrioventricular block second degree” value [1] was 1 (2.8%). For the same compound, the “TEAE: Cardiac Disorders” value [1] was 3 (8.3%), the “TEAE: Decreased appetite” value [1] was 2 (5.6%) and the “TEAE: Diarrhea” value [1] was 1 (2.8%). The “TEAE: Dizziness” value [1] was 5 (13.9%), the “TEAE: Gastrointestinal Disorders” value [1] was 12 (33.3%) and the “TEAE: Headache” value [1] was 4 (11.1%). For the same compound, the “TEAE: Immune System Disorders” value [1] was 1 (2.8%), the “TEAE: Injury associated with device” value [1] was 1 (2.8%) and the “TEAE: Injury poisoning and procedural complications” value [1] was 1 (2.8%). The “TEAE: Metabolism and nutrition disorders” value [1] was 2 (5.6%), the “TEAE: Musculoskeletal and connective tissue disorders” value [1] was 1 (2.8%) and the “TEAE: Musculoskeletal chest pain” value [1] was 1 (2.8%). For the same compound, the “TEAE: Nasopharyngitis” value [1] was 1 (2.8%), the “TEAE: Nausea” value [1] was 8 (22.2%) and the “TEAE: Oropharyngeal pain” value [1] was 1 (2.8%). For the same compound, the “TEAE: Procedural dizziness” value [1] was 1 (2.8%), the “TEAE: Respiratory” value [1] was 1 (2.8%) and the “TEAE: Seasonal allergy” value [1] was 1 (2.8%). For the same compound, the “TEAE: Subjects with at least one event” value [1] was 21 (58.3%), the “TEAE: Ventricular extrasystoles” value [1] was 1 (2.8%) and the “TEAE: Vomiting” value [1] was 10 (27.8%). The “severity of treatment-emergent adverse events” value (all doses) was “Grade 1 (mild) or Grade 2 (moderate)”, the “overall daily food intake” value (all doses compared with placebo, in words) was “reduction in overall daily food intake” and the plasma glucose levels (all doses, around meal times, in words) was “glucose lowering effect”. For the same compound, the ADA positive subjects (baseline or post-baseline) was “No subjects were ADA positive”, the “tolerability with respect to nausea, vomiting, tachycardia and blood pressure” value (doses up to 150 μg) was “acceptable” and the “geometric mean t1/2” value (single SC dose) was 10 to 12 h. The “Median diastolic BP maximum post dose change” value (single dose 5 μg) was 13 mm Hg, the “Number of subjects with vomiting” value (single dose 5 μg) was 0(0) and the vomiting episodes (single dose 5 μg) was 0(0). For the same compound, the “Median glucose peak after breakfast” value (single dose 5 μg) was 6.2 mmol/L, the “Median glucose peak after dinner” value (single dose 5 μg) was 7.0 mmol/L and the “Median glucose peak after lunch” value (single dose 5 μg) was 4.9 mmol/L. For the same compound, the “Overall daily food intake compared with placebo” value (single dose 5 μg) was 100%, the “Median diastolic BP maximum post dose change” value (single dose 10 μg) was 8 mm Hg and the “Number of subjects with vomiting” value (single dose 10 μg) was 0(0). The vomiting episodes (single dose 10 μg) was 0(0), the “Median glucose peak after breakfast” value (single dose 10 μg) was 5.8 mmol/L and the “Median glucose peak after dinner” value (single dose 10 μg) was 6.0 mmol/L. The “Median glucose peak after lunch” value (single dose 10 μg) was 5.1 mmol/L, the “Overall daily food intake compared with placebo” value (single dose 10 μg) was 100% and the “Number of subjects with vomiting” value (single dose 30 μg) was 0(0). For the same compound, the vomiting episodes (single dose 30 μg) was 0(0), the “Median glucose peak after breakfast” value (single dose 30 μg) was 5.4 mmol/L and the “Median glucose peak after dinner” value (single dose 30 μg) was 5.2 mmol/L. The “Median glucose peak after lunch” value (single dose 30 μg) was 4.4 mmol/L, the “Overall daily food intake compared with placebo” value (single dose 30 μg) was 96% and the “Median diastolic BP maximum post dose change” value (single dose 100 μg) was 16 mm Hg. The “Number of subjects with vomiting” value (single dose 100 μg) was 1(1), the vomiting episodes (single dose 100 μg) was 1(1) and the “Median glucose peak after breakfast” value (single dose 100 μg) was 5.5 mmol/L. For the same compound, the “Median glucose peak after dinner” value (single dose 100 μg) was 5.2 mmol/L, the “Median glucose peak after lunch” value (single dose 100 μg) was 4.7 mmol/L and the “Overall daily food intake compared with placebo” value (single dose 100 μg) was 82%. The “Median diastolic BP maximum post dose change” value (single dose 150 μg) was 15 mm Hg, the “Number of subjects with vomiting” value (single dose 150 μg) was 4 and the vomiting episodes (single dose 150 μg) was 9. For the same compound, the “Median glucose peak after breakfast” value (single dose 150 μg) was 5.1 mmol/L, the “Median glucose peak after dinner” value (single dose 150 μg) was 5.2 mmol/L and the “Median glucose peak after lunch” value (single dose 150 μg) was 5.1 mmol/L. For the same compound, the “Overall daily food intake compared with placebo” value (single dose 150 μg) was 60%, the “Median diastolic BP maximum post dose change” value (single dose 300 μg) was 19 mm Hg and the “Number of subjects with vomiting” value (single dose 300 μg) was 5. The vomiting episodes (single dose 300 μg) was 30, the “Median glucose peak after breakfast” value (single dose 300 μg) was 4.7 mmol/L and the “Median glucose peak after dinner” value (single dose 300 μg) was 4.9 mmol/L. The “Median glucose peak after lunch” value (single dose 300 μg) was 5.1 mmol/L and the “Overall daily food intake compared with placebo” value (single dose 300 μg) was 23%.
